Experiments:
[1] = tested on: amphetamine antibody (pooled antisera); experiment: Radioimmunoassay for amphetamine (displacement of 125I-labeled amphetamine analog from antibody); assay type: binding, goats; conditions: for Relative Reactivity, Radioimmunoassay: cross-reactivity expressed as relative reactivity; for Cross-reactivity: concentration of amphetamine equivalent in the assay to 10 μg/ml. of the test drug: pooled antisera selected for low cross-reactivity
[2] = cross-reactivity expressed as relative reactivity; Braitin and Sunshine 1973; cited from earlier work
[3] = cross-reactivity expressed as relative reactivity; Braitin and Sunshine 1973; cited from earlier work; remark: listed apart in the source

Row | SMILES | Relative Reactivity, Radioimmunoassay [1] | Relative Reactivity, FRAT [2] | Relative Reactivity, EMIT [3] | Amphetamine equivalent when tested with 10 μg/ml. of test drug, individual sera ([1]; individual sera (not the selected pool), test drug at 10 μg/ml) | Cross-reactivity: concentration of amphetamine equivalent in the assay to 10 μg/ml. of the test drug ([1]; test drug at 10 μg/ml)
1 | CC(COc1ccccc1)NC(C)C(O)c1ccc(O)cc1 (centres unmarked) [Isoxsuprine] | 0 | 0.05 | 0.2 |  | 
2 | CC(C)(N)Cc1ccccc1 [Phentermine] | 0.07 | 1.0 |  | 2 to 5 µg/mL | 0.7 µg/mL
3 | CNC(C)(C)Cc1ccccc1 [Mephentermine] |  |  | 0.6 |  | 
4 | CC1NCCOC1c1ccccc1 (centres unmarked) [Phenmetrazine] |  |  |  |  | 0.06 µg/mL
5 | CNC(C)CC1CCCCC1 (centres unmarked) [Propylhexedrine] | 0.03 | 0.5 |  |  | 0.3 µg/mL
6 | COc1ccc2c(c1)C13CCCCC1C(C2)N(C)CC3 (single isomer, unassigned) [Dextromethorphan] |  |  |  |  | 0.003 µg/mL
7 | CN[C@@H](C)[C@H](O)c1ccccc1 [Ephedrine (1-form), Ephedrine] | 0.0003 | 0.15 | 0.2 |  | 0.003 µg/mL
8 | NCCc1ccc(O)c(O)c1 [Dopamine] |  |  |  |  | 0.015 µg/mL
9 | NCC(O)c1ccc(O)c(O)c1 (centres unmarked) [Norepinephrine] |  |  |  |  | 0.003 µg/mL
10 | CNC(C)CC1CCCC1 (centres unmarked) [Cyclopentamine] | 0.02 | 0.2 | 0.3 |  | 
11 | CC(N)C(O)c1ccccc1 (centres unmarked) [Phenylpropanolamine] |  |  |  |  | 0.17 µg/mL
12 | CC(CCc1ccccc1)NC(C)C(O)c1ccc(O)cc1 (centres unmarked) [Nylidrin] |  | 0.1 |  |  | 
13 | CC(C)NCC(O)c1ccc(O)c(O)c1 (centres unmarked) [Isoproterenol] |  |  |  |  | 0 µg/mL
14 | NCCc1ccc(O)cc1 [Tyramine] |  |  |  |  | 0.17 µg/mL

— patent US4041076A, “Immunoassay for pharmacologically active phenethylamines” (Hoffmann-La Roche Inc., priority 1976, dated 1977)
